Activity calls are given as the source filed them.
Tests used:
[1] = target: T1, Latent membrane protein 1 (Human herpesvirus 4 (strain B95-8), UniProt P03230); experiment: TES1-eGFP NF-kB reporter inhibition versus Tet-On dsRED, dose response, selectivity assay for LMP1 NF-kB inhibitor project, imaging, HEK293T, dual-color eGFP/dsRED, cherry-picks (AID 588398); assay type: functional, cell-based
T1 sequence (P03230 whole entry): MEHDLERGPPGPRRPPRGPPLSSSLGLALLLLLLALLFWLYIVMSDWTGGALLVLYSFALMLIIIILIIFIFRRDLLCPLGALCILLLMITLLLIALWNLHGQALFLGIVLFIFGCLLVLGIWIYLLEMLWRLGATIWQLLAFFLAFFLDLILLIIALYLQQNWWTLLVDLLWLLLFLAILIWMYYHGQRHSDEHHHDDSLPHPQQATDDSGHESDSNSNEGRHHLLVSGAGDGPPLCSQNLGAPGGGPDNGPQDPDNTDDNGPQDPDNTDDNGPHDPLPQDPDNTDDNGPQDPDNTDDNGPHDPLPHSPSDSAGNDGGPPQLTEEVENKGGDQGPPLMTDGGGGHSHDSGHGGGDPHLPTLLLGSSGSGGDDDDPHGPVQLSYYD

[2] = target: 72 kDa type IV collagenase (Homo sapiens, UniProt P08253); experiment: Dose Response validation of uHTS RPN11 inhibitor hits using a MMP-2 Fluorescence assay.; assay type: functional
Sequence of 72 kDa type IV collagenase (P08253 whole entry): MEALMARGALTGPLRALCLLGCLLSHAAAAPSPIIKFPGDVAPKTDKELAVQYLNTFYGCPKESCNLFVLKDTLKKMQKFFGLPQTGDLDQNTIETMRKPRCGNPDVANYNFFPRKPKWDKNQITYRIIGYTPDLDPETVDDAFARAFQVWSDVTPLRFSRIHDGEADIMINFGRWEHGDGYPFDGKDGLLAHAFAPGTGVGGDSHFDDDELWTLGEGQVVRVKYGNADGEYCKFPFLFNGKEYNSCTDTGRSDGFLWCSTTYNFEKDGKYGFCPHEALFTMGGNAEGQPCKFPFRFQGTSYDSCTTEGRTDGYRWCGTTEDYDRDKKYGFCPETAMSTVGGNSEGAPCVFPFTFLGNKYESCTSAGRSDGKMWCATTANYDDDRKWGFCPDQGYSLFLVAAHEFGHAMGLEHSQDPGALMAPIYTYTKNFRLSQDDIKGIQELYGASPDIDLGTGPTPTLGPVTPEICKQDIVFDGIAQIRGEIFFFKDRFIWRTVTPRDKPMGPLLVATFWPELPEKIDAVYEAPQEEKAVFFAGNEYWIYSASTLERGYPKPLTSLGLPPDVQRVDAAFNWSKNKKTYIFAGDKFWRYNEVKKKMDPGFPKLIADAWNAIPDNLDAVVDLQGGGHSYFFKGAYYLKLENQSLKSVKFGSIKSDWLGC

[3] = target: 26S proteasome non-ATPase regulatory subunit 14 (Homo sapiens, UniProt O00487); experiment: inhibition of proteasome subunit RPN11 – biochemical, fluorescence polarization, uHTS hits, confirmation (AID 602368); assay type: functional
Sequence of 26S proteasome non-ATPase regulatory subunit 14 (O00487 whole entry): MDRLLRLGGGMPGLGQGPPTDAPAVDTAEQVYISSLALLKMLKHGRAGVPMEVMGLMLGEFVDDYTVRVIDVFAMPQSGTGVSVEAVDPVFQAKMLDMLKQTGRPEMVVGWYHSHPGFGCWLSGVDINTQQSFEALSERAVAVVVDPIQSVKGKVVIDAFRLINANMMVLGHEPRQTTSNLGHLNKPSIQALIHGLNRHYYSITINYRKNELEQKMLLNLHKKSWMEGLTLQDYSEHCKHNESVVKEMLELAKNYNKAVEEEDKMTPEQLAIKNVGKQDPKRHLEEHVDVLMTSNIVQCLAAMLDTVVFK

Prothrombin = Prothrombin (Bos taurus, UniProt P00735); experiment: thrombin inhibition, dose response, biochemical, fluorescence polarization, uHTS hits (AID 602369); assay type: functional
[4] = target: T2, Corticotropin-releasing factor receptor 2/Corticotropin-releasing factor-binding protein (Homo sapiens, UniProt P24387+Q13324); experiment: Dose Response confirmation of uHTS hits for small molecule antagonists of the CRF-binding protein and CRF-R2 receptor complex.; assay type: functional; conditions: read-out: IC50_Mean
T2 sequence (Q13324 whole entry): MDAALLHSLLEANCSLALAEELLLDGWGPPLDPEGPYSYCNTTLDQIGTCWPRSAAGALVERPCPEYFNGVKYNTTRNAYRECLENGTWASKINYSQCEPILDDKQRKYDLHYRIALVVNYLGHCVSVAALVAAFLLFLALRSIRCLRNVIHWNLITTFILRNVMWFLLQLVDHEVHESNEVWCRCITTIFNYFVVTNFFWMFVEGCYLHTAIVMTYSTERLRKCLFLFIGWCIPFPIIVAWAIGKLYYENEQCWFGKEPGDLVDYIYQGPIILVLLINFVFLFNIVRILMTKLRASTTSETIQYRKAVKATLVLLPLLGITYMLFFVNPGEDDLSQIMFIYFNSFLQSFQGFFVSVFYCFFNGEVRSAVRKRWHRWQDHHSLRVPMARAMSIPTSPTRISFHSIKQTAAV
T2 sequence (P24387 whole entry): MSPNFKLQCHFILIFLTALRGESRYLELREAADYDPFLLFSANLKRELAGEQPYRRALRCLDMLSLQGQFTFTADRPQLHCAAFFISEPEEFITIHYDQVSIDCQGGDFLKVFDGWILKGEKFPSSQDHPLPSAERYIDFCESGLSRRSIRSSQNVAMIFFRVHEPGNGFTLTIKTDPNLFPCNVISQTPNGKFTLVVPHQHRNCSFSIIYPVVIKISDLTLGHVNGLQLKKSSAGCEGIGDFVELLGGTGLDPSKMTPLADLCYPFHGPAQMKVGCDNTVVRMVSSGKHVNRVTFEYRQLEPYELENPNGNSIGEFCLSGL

[5] = target: T2, Corticotropin-releasing factor receptor 2/Corticotropin-releasing factor-binding protein; experiment: activators of CRF receptor 2 with binding protein – uHTS hits, confirmation (AID 602473); assay type: functional; conditions: read-out: EC50_Mean
INS1 = experiment: beta cell apoptosis inhibitors, cytokine rescue, dose response, luminescence, retest (AID 449756); assay type: functional, cell-based; conditions: Rattus norvegicus;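 note: cell death triggered by IL-1 beta plus TNF-alpha plus IFN-gamma mixture; protective hits raise ATP signal compared with cytokine alone wells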
[6] = CRF-BP/CRF-R2 complex antagonists, dose response, cell-based, uHTS hits, 384-well (AID 651639); assay type: functional, Homo sapiens; conditions: read-out: IC50_Mean
HeLa = experiment: HeLa cell cytotoxicity, dose response, cytotoxicity control for MITF activator project, CellTiter-Glo luminescence, cherry-pick samples (AID 540259); assay type: functional, cell-based; conditions: Homo sapiens
Beta Lactamase = Beta Lactamase (Pseudomonas aeruginosa, UniProt Q932Y6); experiment: beta-lactamase reporter inhibitor potency, dose response, artefact control for NOD2-RIPK2 interaction inhibitor project, BLA reporter cells, FRET fluorescence (AID 651552); assay type: functional, cell-based
Sequence of Beta Lactamase (Q932Y6 whole entry, the tested form may be a part): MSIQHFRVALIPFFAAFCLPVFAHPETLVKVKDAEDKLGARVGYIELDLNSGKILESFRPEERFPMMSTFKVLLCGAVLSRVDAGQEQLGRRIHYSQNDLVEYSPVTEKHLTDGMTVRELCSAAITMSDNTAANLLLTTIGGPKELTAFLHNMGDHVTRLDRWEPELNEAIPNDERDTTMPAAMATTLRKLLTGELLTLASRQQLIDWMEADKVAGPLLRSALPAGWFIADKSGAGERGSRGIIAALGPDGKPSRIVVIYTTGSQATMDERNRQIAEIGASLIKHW

Fatty acid synthase [7] = target: T3, Fatty acid synthase (Homo sapiens, UniProt P49327); experiment: FAS thioesterase domain inhibitors, dose response, biochemical, kinetic fluorescence intensity (AID 624326); assay type: functional;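 note: rate of fluorescence rise from hydrolysis of a fluorogenic O-methyl fluorescein ester substrate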
T3 sequence (P49327 whole entry, the tested form may be a part): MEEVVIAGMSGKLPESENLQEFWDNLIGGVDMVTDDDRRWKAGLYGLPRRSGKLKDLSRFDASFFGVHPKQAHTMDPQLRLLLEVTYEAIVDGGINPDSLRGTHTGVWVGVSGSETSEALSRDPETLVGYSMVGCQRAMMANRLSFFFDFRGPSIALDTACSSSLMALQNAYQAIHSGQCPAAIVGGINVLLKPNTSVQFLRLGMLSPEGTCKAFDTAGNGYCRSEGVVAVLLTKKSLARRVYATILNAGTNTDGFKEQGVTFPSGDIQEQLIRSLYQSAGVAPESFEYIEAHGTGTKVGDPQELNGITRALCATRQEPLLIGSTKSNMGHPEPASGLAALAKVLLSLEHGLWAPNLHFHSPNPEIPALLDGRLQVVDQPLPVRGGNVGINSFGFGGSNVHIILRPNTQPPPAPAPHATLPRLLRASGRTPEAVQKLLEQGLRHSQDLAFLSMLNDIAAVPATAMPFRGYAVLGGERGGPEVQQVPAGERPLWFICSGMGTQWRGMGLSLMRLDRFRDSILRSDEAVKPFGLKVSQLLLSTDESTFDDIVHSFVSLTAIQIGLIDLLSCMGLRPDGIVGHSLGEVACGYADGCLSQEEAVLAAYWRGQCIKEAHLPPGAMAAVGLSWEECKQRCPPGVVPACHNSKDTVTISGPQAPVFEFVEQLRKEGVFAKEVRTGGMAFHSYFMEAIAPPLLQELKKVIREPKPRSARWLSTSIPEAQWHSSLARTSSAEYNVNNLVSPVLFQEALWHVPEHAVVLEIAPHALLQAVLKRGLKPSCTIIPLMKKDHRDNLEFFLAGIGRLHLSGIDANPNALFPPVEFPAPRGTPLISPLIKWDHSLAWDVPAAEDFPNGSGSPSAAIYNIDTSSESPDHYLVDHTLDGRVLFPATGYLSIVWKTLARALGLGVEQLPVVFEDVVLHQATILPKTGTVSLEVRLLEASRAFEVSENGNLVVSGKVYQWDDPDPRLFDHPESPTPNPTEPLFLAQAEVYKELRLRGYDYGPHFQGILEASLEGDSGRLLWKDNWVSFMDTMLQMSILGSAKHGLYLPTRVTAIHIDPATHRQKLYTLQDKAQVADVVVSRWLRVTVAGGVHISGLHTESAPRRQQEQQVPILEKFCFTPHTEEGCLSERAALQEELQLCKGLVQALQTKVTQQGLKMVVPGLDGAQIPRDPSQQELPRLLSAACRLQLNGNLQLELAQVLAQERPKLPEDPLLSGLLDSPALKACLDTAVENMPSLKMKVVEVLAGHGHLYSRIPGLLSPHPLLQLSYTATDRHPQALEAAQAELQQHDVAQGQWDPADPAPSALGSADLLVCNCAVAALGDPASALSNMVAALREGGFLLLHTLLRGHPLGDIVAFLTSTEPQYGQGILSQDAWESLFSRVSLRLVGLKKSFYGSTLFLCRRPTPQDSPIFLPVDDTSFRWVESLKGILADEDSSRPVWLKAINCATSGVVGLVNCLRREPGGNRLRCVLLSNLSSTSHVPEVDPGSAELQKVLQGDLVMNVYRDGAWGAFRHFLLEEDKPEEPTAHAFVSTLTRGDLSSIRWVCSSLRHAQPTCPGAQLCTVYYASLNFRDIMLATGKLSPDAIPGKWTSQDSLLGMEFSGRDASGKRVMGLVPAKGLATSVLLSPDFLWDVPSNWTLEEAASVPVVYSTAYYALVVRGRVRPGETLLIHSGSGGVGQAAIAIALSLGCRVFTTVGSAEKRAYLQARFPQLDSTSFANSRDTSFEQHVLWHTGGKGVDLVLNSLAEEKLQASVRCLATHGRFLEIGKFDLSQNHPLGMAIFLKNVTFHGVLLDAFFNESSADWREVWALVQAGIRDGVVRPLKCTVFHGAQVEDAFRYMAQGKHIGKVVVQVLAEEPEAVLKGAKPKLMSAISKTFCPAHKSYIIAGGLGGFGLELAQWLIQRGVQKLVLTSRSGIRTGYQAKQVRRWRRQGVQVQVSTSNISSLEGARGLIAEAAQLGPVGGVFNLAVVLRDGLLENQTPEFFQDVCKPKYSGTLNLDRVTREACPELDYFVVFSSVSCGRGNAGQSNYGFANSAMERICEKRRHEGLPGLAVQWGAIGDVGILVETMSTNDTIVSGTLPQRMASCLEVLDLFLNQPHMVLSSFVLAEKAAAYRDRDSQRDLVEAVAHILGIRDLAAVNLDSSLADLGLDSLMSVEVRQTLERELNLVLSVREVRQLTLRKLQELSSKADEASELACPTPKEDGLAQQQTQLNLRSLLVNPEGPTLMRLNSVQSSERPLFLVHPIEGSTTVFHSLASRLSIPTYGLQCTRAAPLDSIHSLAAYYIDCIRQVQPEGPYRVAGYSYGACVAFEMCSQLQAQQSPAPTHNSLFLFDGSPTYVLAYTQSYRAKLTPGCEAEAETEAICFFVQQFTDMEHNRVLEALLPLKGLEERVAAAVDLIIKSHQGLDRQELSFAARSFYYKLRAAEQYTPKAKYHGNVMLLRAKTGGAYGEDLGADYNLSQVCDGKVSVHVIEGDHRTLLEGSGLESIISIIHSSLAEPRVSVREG

[8] = Fluorescence-based cell-based high throughput dose response assay for inhibitors of the interaction of nucleotide-binding oligomerization domain containing 2 (NOD2) and the receptor-interacting serine-threonine kinase 2 (RIPK2).; assay type: functional; conditions: Homo sapiens
Fatty acid synthase [9] = target: T3, Fatty acid synthase; experiment: FAS thioesterase domain inhibitors, dose response, biochemical, endpoint fluorescence intensity, uHTS hits (AID 624327); assay type: functional;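 note: fluorescence from hydrolysis of an O-methyl fluorescein acyl ester substrate by the enzyme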
Escherichia coli [10] = experiment: microbe, parasite or virus in culture
Escherichia coli [11] = experiment: microbe, parasite or virus in culture; remark: listed apart in the source
HEK293 = experiment: inhibitors of LMP1-driven NF-kB reporter, dose response, cell-based, HEK293, luciferase, cherry-pick (AID 588343); assay type: functional; conditions: Homo sapiens
Nonstructural protein 1 = Nonstructural protein 1 (Influenza A virus, UniProt Q194T2); assay type: functional, Influenza A virus (A/California/07/2009(H1N1))
Sequence of Nonstructural protein 1 (Q194T2 whole entry): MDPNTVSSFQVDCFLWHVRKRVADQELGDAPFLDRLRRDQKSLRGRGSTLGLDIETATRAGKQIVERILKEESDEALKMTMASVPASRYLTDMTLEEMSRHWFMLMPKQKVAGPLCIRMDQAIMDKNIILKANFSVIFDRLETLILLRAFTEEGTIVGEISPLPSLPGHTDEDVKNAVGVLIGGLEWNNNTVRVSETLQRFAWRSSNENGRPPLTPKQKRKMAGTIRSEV

[12] = target: Heat shock protein HSP 90-alpha (Homo sapiens, UniProt P07900); assay type: functional, organism-based

For Cc1ccc(OCCn2cc(C(=S)N3CCCC3)c3ccccc32)cc1C, which AC50 [1] is on record?
The AC50 was 72.9 µM (active).

For Cc1cc(C)c(S(=O)(=O)N2CCN(C(=O)c3ccccc3OCc3c(C)noc3C)CC2)c(C)c1, which AC50 [1] is on record?
The AC50 was 91.5 µM (active).

Which IC50 [2] does the source give for Cc1nnc(SCc2nc3scc(-c4ccccc4)c3c(=O)[nH]2)s1 here?
Its IC50 is > 100 µM (inactive).

And the IC50 [3]?
Its IC50 is 98.6 µM (active).

What about the IC50 (Prothrombin) of the same compound?
Its IC50 is 85.3 µM (active).

For CC(C)Cn1c(SCC(=O)N2CCc3ccccc3C2)nc2cc(Cl)ccc2c1=O, which IC50 [4] is on record?
Its IC50 is 6.92 µM (active).

And the EC50 [5]?
The EC50 was > 53 µM (inactive).

And the AC50 (INS1)?
Its AC50 is 7.24 µM (active).

And the IC50 [6]?
The IC50 was 6.45 µM (active).

For c1ccc(-c2ccc3sccc3n2)cc1, which AC50 (HeLa) is on record?
Its AC50 is 79 µM (active).

For Fc1ccccc1CN=C(S)Nc1ccc(Cl)cc1, which IC50 [6] is on record?
Its IC50 is 14.8 µM (active).

What does the source list for CCOC(=O)[C@]12Cc3cc(Cl)ccc3[C@H]1N(C1CCCCC1)C(=O)c1cc(OC)ccc12?
IC50 (Beta Lactamase): 16.8 µM (inactive); IC50 (Fatty acid synthase [7]): 3.04 µM (active); IC50 [8]: 11.7 µM (inactive); IC50 (Fatty acid synthase [9]): 2.71 µM (active)

For C[C@H](NC(=O)c1[nH]cnc1C(=O)NCC(=O)OC(C)(C)C)c1ccccc1, which AC50 (Escherichia coli [10]) is on record?
Its AC50 is 52.9 µM (active).

What about the AC50 (Escherichia coli [11]) of the same compound?
Its AC50 is 46.2 µM (active).

Which AC50 (HEK293) does the source give for CC(=NNC(=S)N1CCCCCC1)c1ccccn1 here?
Its AC50 is 0.545 µM (active).

What about the IC50 (Nonstructural protein 1) of the same compound?
The IC50 was 3 µM (active).

And the AC50 [1]?
Its AC50 is 4.98 µM (active).

What about the AC50 [12] of the same compound?
The AC50 was 3.49 µM (active).

Reference: ChEMBL document CHEMBL1201862, “PubChem BioAssay data set” (2004)
